The molecules below were run against T1, 11β-HSD1 (Homo sapiens, UniProt P28845) (assay: In vitro inhibition of 11β-HSD1, HTRF detection of cortisol generated from cortisone by human liver microsomes). Conditions: 11β-HSD IC50 (nM), 1 hour at 37° C., pH 6.0, NADPH 200 μM, cortisone 80 nM, inhibition relative to carbenoxolone signal.
T1 construct: detecting cortisol generated from cortisterone by human liver microsomes; from tissue; host or cells: human liver microsomes
Type: biochemical
Method in brief: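 Inhibition expressed against the carbenoxolone signal and fitted to IC50 curves. Readout: HTRF competition between microsomal cortisol and XL665-labelled cortisol for Eu-cryptate anti-cortisol antibody (typically 2 h), with emission ratio 665/615 calibrated to cortisol concentration.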

T1 sequence (P28845 whole entry): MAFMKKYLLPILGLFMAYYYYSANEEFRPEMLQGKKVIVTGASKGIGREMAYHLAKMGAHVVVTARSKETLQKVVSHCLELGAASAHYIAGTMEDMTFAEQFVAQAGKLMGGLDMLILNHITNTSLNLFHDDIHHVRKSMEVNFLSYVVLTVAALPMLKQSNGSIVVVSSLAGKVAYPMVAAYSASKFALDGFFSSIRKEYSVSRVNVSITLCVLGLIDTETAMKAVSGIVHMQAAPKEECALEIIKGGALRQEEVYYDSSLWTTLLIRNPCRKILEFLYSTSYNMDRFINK

Row | Compound | IC50 [nM]
1 | CC1(C)[C@H]2Cc3cc4oc([C@H]5CCCO5)nc4cc3[C@]1(C)CCN2C(=O)c1ccc2nc[nH]c2c1 [Example 337, (3H-Benzoimidazol-5-yl)-[(6R,10S)-5,6,7,8,9,10-hexahydro-10,12,12-trimethyl-2-[(R)-tetrahydrofuran-2-yl]-6,10-methano-oxazolo[4,5-i][3]benzazocin-7-yl]-methanone] | 52
2 | CC1(C)[C@H]2Cc3cc4oc([C@@H]5CCCO5)nc4cc3[C@]1(C)CCN2C(=O)c1ccc2nc[nH]c2c1 [Example 338, (3H-Benzoimidazol-5-yl)-[(6R,10S)-5,6,7,8,9,10-hexahydro-10,12,12-trimethyl-2-[(S)-tetrahydrofuran-2-yl]-6,10-methano-oxazolo[4,5-i][3]benzazocin-7-yl]-methanone] | 63
3 | CC1(C)[C@H]2Cc3ccccc3[C@]1(C)CCN2C(=O)c1ccc(C(O)(C(F)(F)F)C(F)(F)F)cc1 [Example 339, [4-(2,2,2-Trifluoro-1-hydroxy-1-trifluoromethyl-ethyl)-phenyl]-[(2R,6S)-6,11,11-trimethyl-1,2,5,6-tetrahydro-4H-2,6-methano-benzo[d]azocin-3-yl]-methanone] | 1270
4 | C[C@@H]1[C@H]2Cc3ccc(C(C)(C)O)cc3[C@]1(C)CCN2C(=O)c1ccc2nc[nH]c2c1 [Example 340, (3H-Benzoimidazol-5-yl)-[(2R,6R,11S)-8-(1-hydroxy-1-methyl-ethyl)-6,11-dimethyl-1,2,5,6-tetrahydro-4H-2,6-methano-benzo[d]azocin-3-yl]-methanone] | 67
5 | COC(=O)c1ccc2c(c1)[C@]1(C)CCN(C(=O)c3ccc4nc[nH]c4c3)[C@H](C2)[C@H]1C [Example 341, (2R,6R,11S)-3-(3H-Benzoimidazole-5-carbonyl)-6,11-dimethyl-1,2,3,4,5,6-hexahydro-2,6-methano-benzo[d]azocine-8-carboxylic acid methyl ester] | 601
6 | CC1(C)[C@H]2Cc3ccccc3[C@]1(C)CCN2C(=O)c1ccc(S(N)(=O)=O)cc1 [Example 342, 4-[(2R,6S)-6,11,11-Trimethyl-1,2,5,6-tetrahydro-4H-2,6-methano-benzo[d]azocine-3-carbonyl]-benzenesulfonamide] | 373
7 | CC1(C)[C@H]2Cc3ccccc3[C@]1(C)CCN2C(=O)c1cccc(S(N)(=O)=O)c1 [Example 343, 3-[(2R,6S)-6,11,11-Trimethyl-1,2,5,6-tetrahydro-4H-2,6-methano-benzo[d]azocine-3-carbonyl]-benzenesulfonamide] | 1520
8 | CC(O)(c1ccc2c(c1)[C@]1(C)CCN(C(=O)c3ccc4nc[nH]c4c3)[C@H](C2)C1(C)C)C(F)(F)F (stereo partly drawn) [Example 344, (3H-Benzoimidazol-5-yl)-[(2R,6S)-6,11,11-trimethyl-8-(2,2,2-trifluoro-1-hydroxy-1-methyl-ethyl)-1,2,5,6-tetrahydro-4H-2,6-methano-benzo[d]azocin-3-yl]-methanone] | 35

Source: US8859580B2 (Boehringer Ingelheim International GmbH, priority 2007, dated 2014)
